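1) Cells in 96-well plates. 2) Compound, 48 h, 5 concentrations. 3) Linear interpolation between surrounding doses. 4) Unreached endpoint = highest concentration. GI50 is the concentration that inhibits growth by half.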 The source made the active and inactive calls. No stated cut-off is given here; in the data, active = GI50 up to about 1.1 µM and inactive = higher.
Columns and labels:
Assay in all cases: DTP human tumour cell line panel, 48 h
[1] = system: U-251
[2] = system: MOLT-4
[3] = system: 786-0
[4] = system: M14
[5] = system: DU-145
[6] = system: HOP-92
[7] = system: NCI-H522
[8] = system: MDA-MB-231
[9] = system: EKVX
[10] = system: RXF 393
[11] = system: SNB-75
[12] = system: ACHN
[13] = system: MDA-N
[14] = system: SK-OV-3
[15] = system: SW-620
[16] = system: HOP-62
[17] = system: HL-60
[18] = system: TK-10
[19] = system: UO-31
[20] = system: K562

Row | SMILES | GI50 [1] | GI50 [2] | GI50 [3] | GI50 [4] | GI50 [5] | GI50 [6] | GI50 [7] | GI50 [8] | GI50 [9] | GI50 [10] | GI50 [11] | GI50 [12] | GI50 [13] | GI50 [14] | GI50 [15] | GI50 [16] | GI50 [17] | GI50 [18] | GI50 [19] | GI50 [20]
1 | O=C1Nc2ccccc2S/C1=C\c1ccccc1C(F)(F)F | 71.9 µM (inactive) | > 100 µM (inactive) | 44.1 µM (inactive) | > 100 µM (inactive) | > 100 µM (inactive) | 5.38 µM (inactive) | 30.5 µM (inactive) | > 100 µM (inactive) | > 100 µM (inactive) | > 100 µM (inactive) | 34.4 µM (inactive) | 15.1 µM (inactive) | > 100 µM (inactive) | 89.5 µM (inactive) | > 100 µM (inactive) | > 100 µM (inactive) | 4.2 µM (inactive) | 40.6 µM (inactive) | > 100 µM (inactive) | 
2 | COCCOC1=CC(=O)c2c(O)ccc(O)c2C1=O | 1.92 µM (inactive) | 2.43 µM (inactive) | 1.64 µM (inactive) | 0.186 µM (active) | 0.893 µM (active) | 2.13 µM (inactive) | 2.29 µM (inactive) | 1.75 µM (inactive) | 2.14 µM (inactive) | 2.19 µM (inactive) | 2 µM (inactive) | 1.87 µM (inactive) | 0.186 µM (active) | 8.41 µM (inactive) | 0.569 µM (active) | 0.724 µM (active) | 0.52 µM (active) | 1.91 µM (inactive) | 2.17 µM (inactive) | 2.69 µM (inactive)
3 | Cc1cccc(-c2cc(O)c3c(C)cc(C)nc3n2)c1 | 2.79 µM (inactive) | 5.06 µM (inactive) | 4.57 µM (inactive) | 2.29 µM (inactive) | 4.32 µM (inactive) | 35.4 µM (inactive) | 0.658 µM (active) | 5.7 µM (inactive) | 22 µM (inactive) | 3.41 µM (inactive) | 1.99 µM (inactive) | 8.3 µM (inactive) | 0.313 µM (active) | 2.24 µM (inactive) | 0.792 µM (active) | 4.52 µM (inactive) | 0.838 µM (active) | 16.1 µM (inactive) | 9.91 µM (inactive) | 0.585 µM (active)
4 | CCOC(=O)CC1(Cc2ccc(OCc3ccccc3)cc2)C(=O)OC(c2ccccc2)N1C(=O)c1ccccc1 (stereo not drawn) | > 100 µM (inactive) | > 100 µM (inactive) | > 100 µM (inactive) | > 100 µM (inactive) | > 100 µM (inactive) | > 100 µM (inactive) | > 100 µM (inactive) | 68.9 µM (inactive) | > 100 µM (inactive) | > 100 µM (inactive) |  | > 100 µM (inactive) | > 100 µM (inactive) | > 100 µM (inactive) | > 100 µM (inactive) | > 100 µM (inactive) | > 100 µM (inactive) | > 100 µM (inactive) | 45.5 µM (inactive) | > 100 µM (inactive)
5 | Cn1c2ccccc2c2[nH]c3ccccc3c(=O)c21 | > 100 µM (inactive) | 50.6 µM (inactive) | > 100 µM (inactive) | > 100 µM (inactive) | > 100 µM (inactive) | 65.5 µM (inactive) |  | > 100 µM (inactive) | > 100 µM (inactive) | > 100 µM (inactive) | 69.2 µM (inactive) | > 100 µM (inactive) | > 100 µM (inactive) | > 100 µM (inactive) | 88.3 µM (inactive) | > 100 µM (inactive) | > 100 µM (inactive) | > 100 µM (inactive) | > 100 µM (inactive) | > 100 µM (inactive)
6 | O=[N+]([O-])c1ccc2nc3c(nc2c1)-c1c2ccccc2cc2cccc-3c12 | 5.9 µM (inactive) | 2.17 µM (inactive) | 7.62 µM (inactive) | 31.3 µM (inactive) | 28.2 µM (inactive) | 14.9 µM (inactive) | 3.3 µM (inactive) | 18.7 µM (inactive) | 26.4 µM (inactive) | 8.41 µM (inactive) |  | 2.74 µM (inactive) | 10.5 µM (inactive) | 17.5 µM (inactive) | 4.83 µM (inactive) | 18.6 µM (inactive) | 20.5 µM (inactive) | 25.1 µM (inactive) | 12.1 µM (inactive) | 6.1 µM (inactive)
7 | CCCCCCCCCCCCOC1C(COCCN2CCCC2)OC2OC(C)(C)OC21 (stereo not drawn) | 1.73 µM (inactive) | 1.92 µM (inactive) | 1.68 µM (inactive) | 1.85 µM (inactive) | 10.9 µM (inactive) | 1.39 µM (inactive) | 1.23 µM (inactive) | 1.5 µM (inactive) | 3.18 µM (inactive) | 1.57 µM (inactive) | 1.83 µM (inactive) | 3.35 µM (inactive) | 1.41 µM (inactive) | 1.63 µM (inactive) |  | 1.8 µM (inactive) | 0.927 µM (active) | 1.66 µM (inactive) | 1.6 µM (inactive) | 1.23 µM (inactive)
8 | CN(C)CCCN1c2ccc([N+](=O)[O-])cc2CCc2cccc([N+](=O)[O-])c21 | 15.3 µM (inactive) | 15.8 µM (inactive) | 13.6 µM (inactive) | 13.7 µM (inactive) | 17.4 µM (inactive) | 11 µM (inactive) | 17.7 µM (inactive) | 13.1 µM (inactive) | 16.1 µM (inactive) | 10.5 µM (inactive) | 13.2 µM (inactive) | 17.6 µM (inactive) | 14.8 µM (inactive) | 14.8 µM (inactive) | 16.1 µM (inactive) | 13.8 µM (inactive) | 18.1 µM (inactive) | 11.1 µM (inactive) |  | 14.8 µM (inactive)
9 | O=C1NC(S(=O)(=O)O)=NNC12c1ccccc1-c1ccccc12 |  | > 10 µM (inactive) | > 10 µM (inactive) | > 10 µM (inactive) | > 10 µM (inactive) | > 10 µM (inactive) | > 10 µM (inactive) | > 10 µM (inactive) | > 10 µM (inactive) | > 10 µM (inactive) | > 10 µM (inactive) | > 10 µM (inactive) | > 10 µM (inactive) | > 10 µM (inactive) | > 10 µM (inactive) | > 10 µM (inactive) | > 10 µM (inactive) | > 10 µM (inactive) | > 10 µM (inactive) | > 10 µM (inactive)
10 | N[C@H]1CCN(c2c(F)cc3c(=O)c(C(=O)O)cn4c3c2Oc2c-4ccc3c2ccc2ccccc23)C1 | 0.121 µM (active) | 0.0643 µM (active) | 0.128 µM (active) | 2.15 µM (inactive) | 0.942 µM (active) | 2.46 µM (inactive) | 0.498 µM (active) | 4.91 µM (inactive) | 0.377 µM (active) | 0.255 µM (active) |  | 0.23 µM (active) | 0.767 µM (active) |  | 0.276 µM (active) | 1.07 µM (active) | 4.21 µM (inactive) | 0.408 µM (active) | 1.64 µM (inactive) | 0.583 µM (active)
11 | Cc1sc2nc3n(c(=O)c2c1C)N=C(c1ccc(Cl)cc1)CS3 | > 100 µM (inactive) | > 100 µM (inactive) | > 100 µM (inactive) |  | > 100 µM (inactive) | > 100 µM (inactive) | > 100 µM (inactive) | > 100 µM (inactive) | > 100 µM (inactive) | > 100 µM (inactive) | 48.2 µM (inactive) | > 100 µM (inactive) | > 100 µM (inactive) | > 100 µM (inactive) | > 100 µM (inactive) | 66.1 µM (inactive) | > 100 µM (inactive) |  | > 100 µM (inactive) | > 100 µM (inactive)
12 | N=C(N)n1nc2c(c1O)CCC2 | > 100 µM (inactive) |  | > 100 µM (inactive) | > 100 µM (inactive) | > 100 µM (inactive) | > 100 µM (inactive) | > 100 µM (inactive) | > 100 µM (inactive) |  | > 100 µM (inactive) | > 100 µM (inactive) | > 100 µM (inactive) | > 100 µM (inactive) | > 100 µM (inactive) | > 100 µM (inactive) | > 100 µM (inactive) | > 100 µM (inactive) | > 100 µM (inactive) | > 100 µM (inactive) | > 100 µM (inactive)
13 | NC(=O)NCCCC(NC(=O)OCCCCn1ccc(=O)[nH]c1=O)C(=O)O (stereo not drawn) | > 100 µM (inactive) | > 100 µM (inactive) | > 100 µM (inactive) | > 100 µM (inactive) | > 100 µM (inactive) | > 100 µM (inactive) |  | > 100 µM (inactive) | > 100 µM (inactive) | > 100 µM (inactive) | > 100 µM (inactive) | > 100 µM (inactive) | > 100 µM (inactive) | > 100 µM (inactive) | > 100 µM (inactive) | > 100 µM (inactive) | > 100 µM (inactive) | > 100 µM (inactive) | > 100 µM (inactive) | > 100 µM (inactive)
14 | C=CCOc1ccc2c(C)cc(=O)oc2c1C | 54.2 µM (inactive) | 35.1 µM (inactive) | 84.9 µM (inactive) | 46.5 µM (inactive) | > 100 µM (inactive) | 54.3 µM (inactive) | 29.2 µM (inactive) | 32.2 µM (inactive) | 27.4 µM (inactive) | 23.1 µM (inactive) | 52.6 µM (inactive) | 51.8 µM (inactive) | 42 µM (inactive) |  | 67 µM (inactive) | > 100 µM (inactive) | 32.4 µM (inactive) |  | 29.5 µM (inactive) | 52.5 µM (inactive)
15 | O=C1NCC(NC(=O)C(F)(F)F)c2c(Br)sc(Br)c21 (stereo not drawn) | > 100 µM (inactive) | > 100 µM (inactive) | > 100 µM (inactive) | > 100 µM (inactive) | > 100 µM (inactive) | > 100 µM (inactive) | > 100 µM (inactive) | > 100 µM (inactive) | > 100 µM (inactive) | > 100 µM (inactive) | 24.3 µM (inactive) | > 100 µM (inactive) | > 100 µM (inactive) | > 100 µM (inactive) | > 100 µM (inactive) | > 100 µM (inactive) |  | > 100 µM (inactive) | > 100 µM (inactive) | > 100 µM (inactive)
